Test results taken from patent US4667027A, “Cephem compounds and their production” (Takeda Chemical Industries, Ltd., priority 1984, dated 1987).
In brackets after ≈: the same amount, converted by molar mass.

Assays:
Escherichia coli PG8 = assay: β-lactamase stability test, growth inhibition zone, no β-lactamase added; format: cell-based; conditions: β-lactamase not added; test organism Escherichia coli PG8; drug 100 μg/ml; nutrient agar pH 7.0; read-out: diameter of growth inhibition zone
Description: (§1) TAN-591A, B, C are stable to various β-lactamases. The results of stability test of the antibiotic to two β-lactamases employing Escherichia coli PG8 as a test organism are shown in Table 5. […]

penicillinase = assay: β-lactamase stability test, growth inhibition zone with penicillinase; format: cell-based; conditions: penicillinase added; test organism Escherichia coli PG8; drug 100 μg/ml; nutrient agar pH 7.0
Description: as §1

cephalosporinase = assay: β-lactamase stability test, growth inhibition zone with cephalosporinase; format: cell-based; conditions: cephalosporinase added; test organism Escherichia coli PG8; drug 100 μg/ml; nutrient agar pH 7.0
Description: as §1

[1] = tested on: Proteus vulgalis IFO 3988; assay: Antimicrobial spectrum, minimal inhibitory concentration (agar dilution); format: cell-based; conditions: hydrochloride, inoculum 1 loopful of about 10^6/ml
Description: (§2) *Culture medium: 17.5 g of Bacto antibiotic medium 3 (Difco), 5 g of Bact
(§3) yeast extract (Difco), 20 g of Bacto agar (Difco), 1 l of distilled water
(§4) The amount of inoculated microorganism: 1 loopful of about 10^6 /ml o
(§5) microorganism suspension.
(§6) *Medium: Bacto antibiotic medium (Difco) 17.5 g, Bacto yeast extract
(§7) (Difco) 5 g, Bacto agar (Difco) 20 g, distilled water 1 l, pH not

[2] = tested on: Alcaligenes faecalis IFO 13111; assay: as above; format: cell-based; conditions: IFO13111, hydrochloride, inoculum 1 loopful of about 10^6/ml
Description: as §2, §3, §4, §5, §6, §7

[3] = tested on: Brevibacterium thiogenitalis ATCC 19240; assay: as above; format: cell-based; conditions: Corynebacterium glutamicum, ATCC19240, hydrochloride, inoculum 1 loopful of about 10^6/ml
Description: as §2, §3, §4, §5, §6, §7

[4] = tested on: Bacillus subtilis NIHJ PCI 219; assay: as above; format: cell-based; conditions: hydrochloride, inoculum 1 loopful of about 10^6/ml
Description: as §2, §3, §4, §5, §6, §7

[5] = tested on: Escherichia coli NIHJ JC-2; assay: as above; format: cell-based; conditions: NIHJJC2, hydrochloride, inoculum 1 loopful of about 10^6/ml
Description: as §2, §3, §4, §5, §6, §7

[6] = tested on: Klebsiella pneumoniae IFO 3317; assay: as above; format: cell-based; conditions: IFO3317, hydrochloride, inoculum 1 loopful of about 10^6/ml
Description: as §2, §3, §4, §5, §6, §7

[7] = tested on: Salmonella typhimurium IFO 12529; assay: as above; format: cell-based; conditions: Salmonella enterica, hydrochloride, inoculum 1 loopful of about 10^6/ml
Description: as §2, §3, §4, §5, §6, §7

[8] = tested on: Serratia marcescens IFO 12648; assay: as above; format: cell-based; conditions: IFO12648, hydrochloride, inoculum 1 loopful of about 10^6/ml
Description: as §2, §3, §4, §5, §6, §7

[9] = tested on: Pseudomonas aeruginosa IFO 3080; assay: as above; format: cell-based; conditions: IFO3080, hydrochloride, inoculum 1 loopful of about 10^6/ml
Description: as §2, §3, §4, §5, §6, §7

[10] = tested on: Citrobacter freundii IFO 12681; assay: as above; format: cell-based; conditions: IFO12681, hydrochloride, inoculum 1 loopful of about 10^6/ml
Description: as §2, §3, §4, §5, §6, §7

[11] = tested on: Bacillus megaterium IFO 12108; assay: as above; format: cell-based; conditions: Priestia megaterium, IFO12108, hydrochloride, inoculum 1 loopful of about 10^6/ml
Description: as §2, §3, §4, §5, §6, §7

[12] = tested on: Acinetobacter calcoaceticus IFO 12552; assay: as above; format: cell-based; conditions: IFO12552, hydrochloride, inoculum 1 loopful of about 10^6/ml
Description: as §2, §3, §4, §5, §6, §7

[13] = tested on: Staphylococcus aureus FDA 209P; assay: as above; format: cell-based; conditions: FDA209P, hydrochloride, inoculum 1 loopful of about 10^6/ml
Description: as §2, §3, §4, §5, §6, §7

[14] = Toxicity after subcutaneous administration to mice; format: in vivo; conditions: dose of 1 g/kg, hydrochloride
Experimental: When Antibiotic TAN-592B hydrochloride was administered subcutaneously in a dose of 1 g/kg to mice, no death was observed, and therefore Antibiotic TAN-592 is considered to be low in toxicity.
When Antibiotic TAN-591A hydrochloride was administered subcutaneously a dose of 1 g/kg to mice, no death was observed, and therefore Antibiotic TAN-591 is considered to be low in toxicity.

Solubility in solvents = format: physicochemical; conditions: hydrochloride
Escherichia coli 0-111 = assay: Therapeutic effect to infectious disease in mice; format: in vivo; conditions: Escherichia coli, 0111, sc
Description: The therapeutic effect of TAN-592B.hydrochloride to infectious disease in mice is shown below.
*Intraperitoneal infection
The therapeutic effect of TAN-591A.hydrochloride to infectious disease in mice is shown below.

[15] = dimethylsulfoxide, methanol, acetone, ethyl acetate
[16] = water, aqueous acetone, aqueous alcohol

Row | SMILES | zone of inhibition at 100 µg/mL (Escherichia coli PG8) [mm] | diameter of growth inhibition zone (penicillinase) [mm] | diameter of growth inhibition zone (cephalosporinase) [mm] | MIC [1] [µg/mL] | MIC [2] [µg/mL] | MIC [3] [µg/mL] | MIC [4] [µg/mL] | MIC [5] [µg/mL] | MIC [6] [µg/mL] | MIC [7] [µg/mL] | MIC [8] [µg/mL] | MIC [9] [µg/mL] | MIC [10] [µg/mL] | MIC [11] [µg/mL] | MIC [12] [µg/mL] | MIC [13] [µg/mL] | death [14] | Solubility (Solubility in solvents; [15]) | Solubility (Solubility in solvents; [16]) | ED50 (Escherichia coli 0-111) [mg/kg]
1 | CO[C@@]1(NC(=O)CCC[C@@H](N)C(=O)O)C(=O)N2C(C(=O)O)=C(COC(N)=O)CS[C@@H]21 [CMC, cephamycin C, reference compound] | 34 | 34 |  |  |  |  |  |  |  |  |  |  |  |  |  |  |  |  |  | 
2 | CC1(C)S[C@@H]2[C@H](NC(=O)Cc3ccccc3)C(=O)N2[C@H]1C(=O)O [PCG, benzylpenicillin, reference compound] | 22 |  |  |  |  |  |  |  |  |  |  |  |  |  |  |  |  |  |  | 
3 | NCCCCC(NC(=O)C(N)CO)C(O)CC(=O)OCC1=C(C(=O)O)N2C(=O)C(NC=O)(NC(=O)CCCC(N)C(=O)O)C2SC1 (centres unmarked) [TAN-591A] | 22.5 | 22 | 22 | 25 (≈ 37 µM) | 6.25 (≈ 9.25 µM) | 6.25 (≈ 9.25 µM) | 12.5 (≈ 18.5 µM) | 25 (≈ 37 µM) | 50 (≈ 74 µM) | 25 (≈ 37 µM) | 25 (≈ 37 µM) | 100 (≈ 148 µM) | 50 (≈ 74 µM) | 12.5 (≈ 18.5 µM) | 1.56 (≈ 2.31 µM) | > 100 | no death | Sparingly soluble | Easily soluble | 16.2
4 | NCCCCC(NC(=O)C(CO)NC(=O)C(N)CO)C(O)CC(=O)OCC1=C(C(=O)O)N2C(=O)C(NC=O)(NC(=O)CCCC(N)C(=O)O)C2SC1 (centres unmarked) [TAN-591B] | 23 | 23 | 23 | 25 (≈ 32.8 µM) | 12.5 (≈ 16.4 µM) | 6.25 (≈ 8.19 µM) | 25 (≈ 32.8 µM) | 25 (≈ 32.8 µM) | 50 (≈ 65.5 µM) | 25 (≈ 32.8 µM) | 50 (≈ 65.5 µM) | > 100 | 50 (≈ 65.5 µM) | 12.5 (≈ 16.4 µM) | 3.13 (≈ 4.1 µM) | > 100 |  | Sparingly soluble | Easily soluble | 
5 | CC(N)C(=O)NC(CO)C(=O)NC(CO)C(=O)NC(CCCCN)C(O)CC(=O)OCC1=C(C(=O)O)N2C(=O)C(NC=O)(NC(=O)CCCC(N)C(=O)O)C2SC1 (centres unmarked) [TAN-591C] | 22 | 22 | 22 | 50 (≈ 60 µM) | 50 (≈ 60 µM) | 12.5 (≈ 15 µM) | 25 (≈ 30 µM) | 50 (≈ 60 µM) | 50 (≈ 60 µM) | 50 (≈ 60 µM) | 50 (≈ 60 µM) | > 100 | 100 (≈ 120 µM) | 25 (≈ 30 µM) | 3.13 (≈ 3.75 µM) | > 100 |  | Sparingly soluble | Easily soluble | 
6 | N=C(N)NCCCC(NC(=O)C(N)CO)C(O)CC(=O)OCC1=C(C(=O)O)N2C(=O)C(NC=O)(NC(=O)CCCC(N)C(=O)O)C2SC1 (centres unmarked) [TAN-592A] | 28 | 28 | 28 | 12.5 (≈ 17.8 µM) | 3.13 (≈ 4.45 µM) | 3.13 (≈ 4.45 µM) | 12.5 (≈ 17.8 µM) | 12.5 (≈ 17.8 µM) | 50 (≈ 71 µM) | 50 (≈ 71 µM) | 50 (≈ 71 µM) | 50 (≈ 71 µM) | 50 (≈ 71 µM) | 12.5 (≈ 17.8 µM) | 1.56 (≈ 2.22 µM) | > 50 |  | Sparingly soluble | Easily soluble | 
7 | CC(N)C(=O)NC(CO)C(=O)NC(CO)C(=O)NC(CCCNC(=N)N)C(O)CC(=O)OCC1=C(C(=O)O)N2C(=O)C(NC=O)(NC(=O)CCCC(N)C(=O)O)C2SC1 (centres unmarked) [TAN-592C] | 29 | 29 | 29 | 25 (≈ 29 µM) | 6.25 (≈ 7.25 µM) | 6.25 (≈ 7.25 µM) | 12.5 (≈ 14.5 µM) | 25 (≈ 29 µM) | 50 (≈ 58 µM) | 25 (≈ 29 µM) | 50 (≈ 58 µM) | > 50 | > 50 | 12.5 (≈ 14.5 µM) | 3.13 (≈ 3.63 µM) | > 50 |  | Sparingly soluble | Easily soluble | 
8 | N=C(N)NCCCC(NC(=O)C(N)CO)C(O)CC(=O)OCC1=C(C(=O)O)N2C(=O)C(NC(=O)CCCC(N)C(=O)O)C2SC1 (centres unmarked) [TAN-592D] |  |  |  | 50 (≈ 75.7 µM) | 25 (≈ 37.8 µM) | 3.13 (≈ 4.74 µM) | 1.56 (≈ 2.36 µM) | > 50 | > 50 | 50 (≈ 75.7 µM) | > 50 | > 50 | > 50 | 1.56 (≈ 2.36 µM) | > 50 | > 50 |  | Sparingly soluble | Easily soluble | 
9 | N=C(N)NCCCC(NC(=O)C(CO)NC(=O)C(N)CO)C(O)CC(=O)OCC1=C(C(=O)O)N2C(=O)C(NC(=O)CCCC(N)C(=O)O)C2SC1 (centres unmarked) [TAN-592E] |  |  |  | 50 (≈ 66.9 µM) | 25 (≈ 33.4 µM) | 3.13 (≈ 4.19 µM) | 1.56 (≈ 2.09 µM) | > 50 | > 50 | 50 (≈ 66.9 µM) | > 50 | > 50 | > 50 | 1.56 (≈ 2.09 µM) | > 50 | > 50 |  | Sparingly soluble | Easily soluble | 
10 | CC(N)C(=O)NC(CO)C(=O)NC(CO)C(=O)NC(CCCNC(=N)N)C(O)CC(=O)OCC1=C(C(=O)O)N2C(=O)C(NC(=O)CCCC(N)C(=O)O)C2SC1 (centres unmarked) [TAN-592F] |  |  |  | 50 (≈ 61.1 µM) | 12.5 (≈ 15.3 µM) | 3.13 (≈ 3.82 µM) | 1.56 (≈ 1.91 µM) | > 50 | > 50 | > 50 | > 50 | > 50 | > 50 | 1.56 (≈ 1.91 µM) | > 50 | 50 (≈ 61.1 µM) |  | Sparingly soluble | Easily soluble | 
